In US20240299328A1, “COMPOSITIONS COMPRISING 15-HEPE AND METHODS OF TREATING AND/OR PREVENTING HEMATOLOGIC DISORDERS AND RELATED DISEASES” (Afimmune Limited, priority 2023, published 2024):
Like-named read-outs stand apart in the source and are kept apart here.

Key:
[1] = tested on: TGF-β signaling in HepG2 cells; assay: TGF-β-induced EMT protein expression and type II TGF-β receptor in HepG2 cells; type: cell-based, human; conditions: liver cell lines (HepG2, LX2)
Experimental: The effects of 15-HEPE on TGF-β-induced signaling and cellular responses were determined. To test the effect of 15-HEPE on TGF-β-induced signaling, the activities of 15-HEPE to regulate TGF-β-stimulated Smad2 phosphorylation and nuclear translocation, both of which are key signaling events leading to TGF-β-induced cellular responses, were tested. One important biological activity of TGF-β is transcriptional activation of genes responsible for epithelial-mesenchymal transition (EMT), which is a crucial event in wound healing, tissue fibrosis, and cancer progression. The effect of 15-HEPE on TGFβ-induced epithelial mesenchymal transition related proteins (such as fibronectin, PAI-1, and N-cadherin etc.) expression in HepG2 and LXR cells were assessed. HepG2 cells (human hepatoma cell line) were treated in increasing doses of 15-HEPE stage II in DMEM containing 0.1% of FBS for 1 hour and continually stimulated with or without 200 picomolar (pM) of TGF-β for 48 hours. […] HepG2 cells (human hepatoma cell line) were treated in increasing doses of 15-HEPE stage II in DMEM containing 0.1% of FBS for 1 hour and continually stimulated with or without 200 picomolar (pM) of TGF-β for 48 hours. The two panels shown in FIG. 18A are two separate experiments run under the same experimental conditions.

[2] = tested on: NAFLD patients; assay: Phase IIa NAFLD study: OWL liver care diagnostic test; type: in vivo, human; conditions: for Change in Diagnosis (Week 16 vs. baseline): Improvement / Change in Diagnosis (Week 16 vs. baseline): Stable / Change in Diagnosis (Week 16 vs. baseline): Worsening: number of patients
Description: OWL Liver Care is a test that was developed based on the plasma lipidomics in biopsy-confirmed NASH patients and provides high predictive values. OWL Liver Care has an area under the curve (AUC) of 0.88 for distinguishing NAFLD and normal liver patients and an AUC of 0.79 for distinguishing NAFLD without steatohepatitis and NASH patients.

[3] = tested on: NAFLD patients
Description: Safety Assessments included the following: medical history; physical examination; ECG; vital signs; clinical laboratory safety tests (e.g., hematology, serum biochemistry, coagulation, lipid profile, and urinalysis); virology; pregnancy test; blood sampling; pharmacokinetic sampling; exploratory blood collection; biomarker blood collection; urine DOA and alcohol breath test; adverse event assessment; concomitant medication; bioanalysis; sample, storage, handling; and shipping; and restrictions. A detailed description of each is provided below.
AEs were recorded in the case report form, defining relationship to IMP and severity.
SAE: If a patient experienced a serious adverse event after the first dose of the study drug, the event was recorded as a SAE. A SAE is characterized as an untoward medical occurrence at any dose to include any of the following: results in death, is life threatening, requires in-patient hospitalization or prolongation of existing hospitalization, or results in persistent or significant disability/incapacity. The term “life-threatening” refers to an event in which the patient was at risk of death at the time of the event.
Safety Analysis: Demographic, medical history and physical examination data were listed for each patient and summarized descriptively. All AEs recorded during the study were coded to system organ class and preferred terms using the current version of the Medical Dictionary for Regulatory Activities (MedDRA). AEs were tabulated and summarized by treatment, relationship to treatment, seriousness and severity. Clinical laboratory values (e.g., hematology, biochemistry, and urinalysis) were listed for each patient by treatment and day. Values outside the laboratory normal ranges were listed separately with associated comments as to their clinical significance, with potentially clinically significant abnormalities highlighted and summarized by treatment. Clinical laboratory values obtained prior to dosing were defined as baseline values. Alcohol breath test and DOA test results were listed for each patient. Individual values of vital signs were listed and summarized descriptively for each treatment and day. 12 lead ECG assessments were listed for each patient with all associated comments and summarized by treatment and day. Concomitant medications (if any), categorized by medication group and subgroup according to the latest version of the World Health Organization drug dictionary, were listed and summarized by treatment. In general, appropriate descriptive statistics according to the nature of the variable were applied. Categorical variables were presented using counts and percentage, whilst continuous variables were presented using mean, standard deviation, median, minimum, maximum, coefficient of variation and number of patients.

[4] = 0.5% HPMC vehicle; same preparation and storage conditions; concentrations bracketing those used; cited from earlier work
[5] = 1 g DS102 arm, OWL baseline diagnosis NASH
[6] = 1 g DS102 arm, OWL baseline diagnosis No NAFLD
[7] = 1 g DS102 arm, OWL baseline diagnosis Steatosis
[8] = 2 g DS102 arm, OWL baseline diagnosis NASH
[9] = 2 g DS102 arm, OWL baseline diagnosis No NAFLD
[10] = 2 g DS102 arm, OWL baseline diagnosis Steatosis

CC/C=C\C[C@H](O)/C=C/C=C\C/C=C\C/C=C\CCCC(=O)OCC [DS102, 15(S)-hydroxy-(5Z,8Z,11Z,13E,17Z)-eicosapentaenoic acid ethyl ester]
TGF-β signaling [1]: directly inhibit | Change in Diagnosis (Week 16 vs. baseline): Improvement [2, 5]: 5 | Change in Diagnosis (Week 16 vs. baseline): Stable [2, 5]: 14 | Change in Diagnosis (Week 16 vs. baseline): Stable [2, 6]: 3 | Change in Diagnosis (Week 16 vs. baseline): Worsening [2, 6]: 1 | Change in Diagnosis (Week 16 vs. baseline): Stable [2, 7]: 2 | Change in Diagnosis (Week 16 vs. baseline): Worsening [2, 7]: 3 | Change in Diagnosis (Week 16 vs. baseline): Improvement [2, 8]: 5 | Change in Diagnosis (Week 16 vs. baseline): Stable [2, 8]: 7 | Change in Diagnosis (Week 16 vs. baseline): Stable [2, 9]: 2*, ** | Change in Diagnosis (Week 16 vs. baseline): Worsening [2, 9]: 1 | Change in Diagnosis (Week 16 vs. baseline): Improvement [2, 10]: 1 | Change in Diagnosis (Week 16 vs. baseline): Stable [2, 10]: 9 | Change in Diagnosis (Week 16 vs. baseline): Worsening [2, 10]: 4 | OWL liver care diagnosed NASH ([2]; NAFLD patients, dose dependent, vs placebo at Week 16): significantly improved and normalized | AEs leading to treatment discontinuation ([3]; 1 g DS102 (n = 32)): 0 n (%) | Death ([3]; 1 g DS102 (n = 32)): 0 n (%) | Patients with ≥1 AE ([3]; 1 g DS102 (n = 32)): 19 (59.4) n (%) | Patients with ≥1 AE related to study drug ([3]; 1 g DS102 (n = 32)): 2 (6.3) n (%) | Patients with ≥1 SAE ([3]; 1 g DS102 (n = 32)): 0 n (%) | SAEs related to drug study ([3]; 1 g DS102 (n = 32)): 0 n (%) | AEs leading to treatment discontinuation ([3]; 2 g DS102 (n = 30)): 0 n (%) | Death ([3]; 2 g DS102 (n = 30)): 0 n (%) | Patients with ≥1 AE ([3]; 2 g DS102 (n = 30)): 15 (50.0) n (%) | Patients with ≥1 AE related to study drug ([3]; 2 g DS102 (n = 30)): 3 (10.0) n (%) | Patients with ≥1 SAE ([3]; 2 g DS102 (n = 30)): 1 (3.3) n (%) | SAEs related to drug study ([3]; 2 g DS102 (n = 30)): 0 n (%) | safety and tolerance ([3]; NAFLD patients, 1 g or 2 g per day, 16 weeks, compared to placebo): safe and well tolerated | stability of the test item in the vehicle [4]: stable
